In patent publication US20020137774A1, “Carboxyaryl substituted diphenyl ureas as raf kinase inhibitors” (BAYER CORPORATION, priority 1999, published 2002):

COC(=O)c1ccc(Oc2ccc(NC(=O)Nc3ccc(Cl)c(C(F)(F)F)c3)cc2)cn1 [Entry 55, N-(4-chloro-3-(trifluoromethyl)phenyl)-N′-(4-(2-(methoxycarbonyl)-5-pyridyloxy)phenyl) urea]
melting point: 228 to 230 °C
